Measurements: paper PMC8620242 (Journal of Advanced Research, 2021)

Target: nsp12 (Severe acute respiratory syndrome coronavirus 2, UniProt P0DTD1)
Assay: SPR binding to nsp12
Set-up: species or system SARS-CoV-2

## CC1(C)[C@@H](O)CC[C@]2(C)[C@H]3C(=O)C=C4[C@@H]5C[C@@](C)(C(=O)O)CC[C@]5(C)CC[C@@]4(C)[C@]3(C)CC[C@@H]12 [GA, glycyrrhetinic acid]
  Kd: 416 µM
